The assay addresses hNav1.7 (Homo sapiens, UniProt Q15858). In words: cell-based. The assay is classed as cell-based. The following applies: read-out: IWQ Use Nav1.7.

Like-named read-outs stand apart in the source and are kept apart here. Positions of bridges follow the written chain, without caps; N, C: chain ends. Residues, ends and D or L forms follow the SMILES beside them.

Sequence of hNav1.7 (Q15858 whole entry, looked up): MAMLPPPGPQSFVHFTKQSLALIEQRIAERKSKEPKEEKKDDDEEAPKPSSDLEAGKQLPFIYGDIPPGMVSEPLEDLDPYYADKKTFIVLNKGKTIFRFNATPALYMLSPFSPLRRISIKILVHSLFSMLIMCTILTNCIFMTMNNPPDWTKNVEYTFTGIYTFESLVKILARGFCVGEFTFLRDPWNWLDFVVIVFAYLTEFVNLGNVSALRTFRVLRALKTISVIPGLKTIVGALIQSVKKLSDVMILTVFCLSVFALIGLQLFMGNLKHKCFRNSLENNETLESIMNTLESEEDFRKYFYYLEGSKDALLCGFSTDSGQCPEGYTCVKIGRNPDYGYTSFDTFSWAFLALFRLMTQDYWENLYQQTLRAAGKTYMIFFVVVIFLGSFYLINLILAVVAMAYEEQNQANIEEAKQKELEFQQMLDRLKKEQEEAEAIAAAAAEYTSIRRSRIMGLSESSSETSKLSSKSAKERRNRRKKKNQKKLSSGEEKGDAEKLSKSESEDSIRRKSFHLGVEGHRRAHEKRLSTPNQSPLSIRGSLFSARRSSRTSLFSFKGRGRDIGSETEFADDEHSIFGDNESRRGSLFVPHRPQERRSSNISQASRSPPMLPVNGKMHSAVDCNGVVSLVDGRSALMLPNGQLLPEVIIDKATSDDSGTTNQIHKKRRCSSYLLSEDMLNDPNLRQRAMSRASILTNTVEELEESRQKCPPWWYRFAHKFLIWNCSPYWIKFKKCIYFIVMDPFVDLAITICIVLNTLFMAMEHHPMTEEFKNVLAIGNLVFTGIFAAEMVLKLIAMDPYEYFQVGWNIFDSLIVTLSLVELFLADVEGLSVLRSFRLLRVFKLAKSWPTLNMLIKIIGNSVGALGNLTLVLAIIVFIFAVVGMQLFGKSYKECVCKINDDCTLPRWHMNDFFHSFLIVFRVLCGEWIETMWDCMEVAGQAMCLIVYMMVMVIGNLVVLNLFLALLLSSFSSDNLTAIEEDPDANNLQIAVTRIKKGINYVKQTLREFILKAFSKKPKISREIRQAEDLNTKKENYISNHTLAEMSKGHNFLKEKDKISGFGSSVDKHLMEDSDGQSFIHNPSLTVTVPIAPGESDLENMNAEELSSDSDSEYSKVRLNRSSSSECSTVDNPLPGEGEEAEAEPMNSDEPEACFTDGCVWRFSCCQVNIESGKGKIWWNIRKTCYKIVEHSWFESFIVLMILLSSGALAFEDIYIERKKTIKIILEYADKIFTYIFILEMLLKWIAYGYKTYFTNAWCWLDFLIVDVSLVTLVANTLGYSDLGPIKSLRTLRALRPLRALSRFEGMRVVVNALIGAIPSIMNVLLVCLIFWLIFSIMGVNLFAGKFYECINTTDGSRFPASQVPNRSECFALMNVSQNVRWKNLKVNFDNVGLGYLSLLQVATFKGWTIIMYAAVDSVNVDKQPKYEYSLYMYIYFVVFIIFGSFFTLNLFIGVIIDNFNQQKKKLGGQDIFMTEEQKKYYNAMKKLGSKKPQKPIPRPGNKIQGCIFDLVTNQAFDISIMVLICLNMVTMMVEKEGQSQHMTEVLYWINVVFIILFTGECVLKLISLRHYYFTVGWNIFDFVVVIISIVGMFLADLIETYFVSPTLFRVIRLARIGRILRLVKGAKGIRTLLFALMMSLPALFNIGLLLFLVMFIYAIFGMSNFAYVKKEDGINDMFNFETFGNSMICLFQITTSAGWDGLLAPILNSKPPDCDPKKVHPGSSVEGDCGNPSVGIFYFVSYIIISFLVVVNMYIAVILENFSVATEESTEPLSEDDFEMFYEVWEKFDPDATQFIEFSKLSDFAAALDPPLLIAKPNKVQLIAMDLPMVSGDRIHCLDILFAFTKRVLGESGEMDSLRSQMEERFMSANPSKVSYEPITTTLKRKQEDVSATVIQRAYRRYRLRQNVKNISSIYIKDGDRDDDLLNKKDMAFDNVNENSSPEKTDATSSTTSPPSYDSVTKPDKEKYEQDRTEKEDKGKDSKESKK

For `CC[C@H](C)[C@@H]1NC(=O)[C@@H]2CSSC[C@@H]3NC(=O)[C@H](C(C)C)NC(=O)[C@H](CC(C)C)NC(=O)[C@H](CCCNC(=N)N)NC(=O)[C@@H]4CCCN4C(=O)[C@H](CCCNC(=N)N)NC(=O)[C@H](CSSC[C@H](NC(=O)[C@@H](N)CC(=O)O)C(=O)N[C@@H](CC(C)C)C(=O)NCC(=O)N[C@@H](Cc4ccccc4)C(=O)N[C@@H](CCSC)C(=O)N[C@@H](CCCNC(=N)N)C(=O)N[C@@H](CCCCN)C(=O)N2)NC(=O)[C@H](CSSC[C@@H](C(=O)N[C@@H](CCCCN)C(=O)N[C@@H](Cc2ccc(O)cc2)C(=O)N[C@H](C(=O)N[C@@H](Cc2ccccc2)C(N)=O)C(C)C)NC(=O)[C@H](Cc2c[nH]c4ccccc24)NC(=O)[C@H](CCCCN)NC(=O)[C@H](Cc2c[nH]cn2)NC(=O)[C@H]([C@@H](C)O)NC(=O)[C@H](CCCNC(=N)N)NC(=O)[C@H](CO)NC3=O)NC(=O)[C@H](CCCCN)NC(=O)[C@H](CC(=O)O)NC(=O)[C@H](CC(N)=O)NC(=O)[C@H](CC(=O)O)NC(=O)[C@@H]2CCCN2C1=O` [compound 69] (H-DCLGFMRKCIPDNDKCCRPRLVCSRTHKWCKYVF-NH2; disulfide 2-17, 9-23, 16-30), the IC50 (IonWorks Quattro, Use) was 170 nM.
Take `CC[C@H](C)[C@@H]1NC(=O)[C@@H]2CSSC[C@@H]3NC(=O)[C@H](C(C)C)NC(=O)[C@H](CC(C)C)NC(=O)[C@H](CC(N)=O)NC(=O)[C@@H]4CCCN4C(=O)[C@H](CCCNC(=N)N)NC(=O)[C@H](CSSC[C@H](NC(=O)[C@@H](N)CC(=O)O)C(=O)N[C@@H](CC(C)C)C(=O)NCC(=O)N[C@@H](Cc4ccccc4)C(=O)N[C@@H](CCSC)C(=O)N[C@@H](CCCNC(=N)N)C(=O)N[C@@H](CCCCN)C(=O)N2)NC(=O)[C@H](CSSC[C@@H](C(=O)N[C@@H](CCCCN)C(=O)N[C@@H](Cc2ccc(O)cc2)C(=O)N[C@@H](CCCNC(=N)N)C(=O)N[C@@H](Cc2ccccc2)C(N)=O)NC(=O)[C@H](Cc2c[nH]c4ccccc24)NC(=O)[C@H](CCCCN)NC(=O)[C@H](Cc2c[nH]cn2)NC(=O)[C@H]([C@@H](C)O)NC(=O)[C@H](CCCNC(=N)N)NC(=O)[C@H](CO)NC3=O)NC(=O)[C@H](CCCCN)NC(=O)[C@H](CC(=O)O)NC(=O)[C@H](CC(N)=O)NC(=O)[C@H](CC(=O)O)NC(=O)[C@@H]2CCCN2C1=O` [compound 74] (H-DCLGFMRKCIPDNDKCCRPNLVCSRTHKWCKYRF-NH2; disulfide 2-17, 9-23, 16-30): the IC50 (Table 26, IonWorks Quattro, use, […]) stood at 80 nM.
On to `CC[C@H](C)[C@@H]1NC(=O)[C@@H]2CSSC[C@@H]3NC(=O)[C@H](CCC(=O)O)NC(=O)[C@H](CC(C)C)NC(=O)[C@H](CC(N)=O)NC(=O)[C@@H]4CCCN4C(=O)[C@H](CCCNC(=N)N)NC(=O)[C@H](CSSC[C@H](NC(=O)[C@@H](N)CC(=O)O)C(=O)N[C@@H](CC(C)C)C(=O)NCC(=O)N[C@@H](Cc4ccccc4)C(=O)N[C@@H](CCSC)C(=O)N[C@@H](CCCNC(=N)N)C(=O)N[C@@H](CCCCN)C(=O)N2)NC(=O)[C@H](CSSC[C@@H](C(=O)N[C@@H](CCCCN)C(=O)N[C@@H](Cc2ccc(O)cc2)C(=O)N[C@H](C(=O)N[C@@H](Cc2ccccc2)C(N)=O)C(C)C)NC(=O)[C@H](Cc2c[nH]c4ccccc24)NC(=O)[C@H](CCCCN)NC(=O)[C@H](Cc2c[nH]cn2)NC(=O)[C@H]([C@@H](C)O)NC(=O)[C@H](CCCNC(=N)N)NC(=O)[C@H](CO)NC3=O)NC(=O)[C@H](CCCCN)NC(=O)[C@H](CC(=O)O)NC(=O)[C@H](CC(N)=O)NC(=O)[C@H](CC(=O)O)NC(=O)[C@@H]2CCCN2C1=O` [compound 102] (H-DCLGFMRKCIPDNDKCCRPNLECSRTHKWCKYVF-NH2; disulfide 2-17, 9-23, 16-30), for which the IC50 (IonWorks Quattro, Use) stood at 1400 nM.
Same read-out and setting: with `CC[C@H](C)[C@@H]1NC(=O)[C@@H]2CSSC[C@@H]3NC(=O)[C@H](C(C)C)NC(=O)[C@H](CC(C)C)NC(=O)[C@H](CC(N)=O)NC(=O)[C@@H]4CCCN4C(=O)[C@H](CCCNC(=N)N)NC(=O)[C@H](CSSC[C@H](NC(=O)[C@@H](N)CC(=O)O)C(=O)N[C@@H](CC(C)C)C(=O)NCC(=O)N[C@@H](Cc4ccccc4)C(=O)N[C@@H](CCSC)C(=O)N[C@@H](CCCNC(=N)N)C(=O)N[C@@H](CCCCN)C(=O)N2)NC(=O)[C@H](CSSC[C@@H](C(=O)N[C@@H](CCCCN)C(=O)N[C@@H](Cc2ccc(O)cc2)C(=O)N[C@H](C(=O)N[C@@H](Cc2ccccc2)C(N)=O)C(C)C)NC(=O)[C@H](Cc2c[nH]c4ccccc24)NC(=O)[C@H](CCCCN)NC(=O)[C@H](Cc2c[nH]cn2)NC(=O)[C@H]([C@@H](C)O)NC(=O)[C@H](CCCNC(=N)N)NC(=O)[C@H](C)NC3=O)NC(=O)[C@H](CCCCN)NC(=O)[C@H](CC(=O)O)NC(=O)[C@H](CC(N)=O)NC(=O)[C@H](CC(=O)O)NC(=O)[C@@H]2CCCN2C1=O` [compound 142] (H-DCLGFMRKCIPDNDKCCRPNLVCARTHKWCKYVF-NH2; disulfide 2-17, 9-23, 16-30) the figure was 470 nM.
In the case of `CC[C@H](C)[C@@H]1NC(=O)[C@@H]2CSSC[C@@H]3NC(=O)[C@H](C(C)C)NC(=O)[C@H](CC(C)C)NC(=O)[C@H](CC(N)=O)NC(=O)[C@@H]4CCCN4C(=O)[C@H](CCC(=O)O)NC(=O)[C@H](CSSC[C@H](NC(=O)[C@@H](N)CC(=O)O)C(=O)N[C@@H](CC(C)C)C(=O)NCC(=O)N[C@@H](Cc4ccccc4)C(=O)N[C@@H](CCSC)C(=O)N[C@@H](CCCNC(=N)N)C(=O)N[C@@H](CCCCN)C(=O)N2)NC(=O)[C@H](CSSC[C@@H](C(=O)N[C@@H](CCCCN)C(=O)N[C@@H](Cc2ccc(O)cc2)C(=O)N[C@H](C(=O)N[C@@H](Cc2ccccc2)C(N)=O)C(C)C)NC(=O)[C@H](Cc2c[nH]c4ccccc24)NC(=O)[C@H](CCCCN)NC(=O)[C@H](Cc2c[nH]cn2)NC(=O)[C@H]([C@@H](C)O)NC(=O)[C@H](CCCNC(=N)N)NC(=O)[C@H](CO)NC3=O)NC(=O)[C@H](CCCCN)NC(=O)[C@H](CC(=O)O)NC(=O)[C@H](CC(N)=O)NC(=O)[C@H](CC(=O)O)NC(=O)[C@@H]2CCCN2C1=O` [compound 148] (H-DCLGFMRKCIPDNDKCCEPNLVCSRTHKWCKYVF-NH2; disulfide 2-17, 9-23, 16-30), the IC50 came out at 220 nM.
As for `CC[C@H](C)[C@@H]1NC(=O)[C@@H]2CSSC[C@@H]3NC(=O)[C@H](C(C)C)NC(=O)[C@H](CC(C)C)NC(=O)[C@H](CC(N)=O)NC(=O)[C@H](CCCNC(=N)N)NC(=O)[C@H](CCCNC(=N)N)NC(=O)[C@H](CSSC[C@H](NC(=O)[C@@H](N)CC(=O)O)C(=O)N[C@@H](CC(C)C)C(=O)NCC(=O)N[C@@H](Cc4ccccc4)C(=O)N[C@@H](CCSC)C(=O)N[C@@H](CCCNC(=N)N)C(=O)N[C@@H](CCCCN)C(=O)N2)NC(=O)[C@H](CSSC[C@@H](C(=O)N[C@@H](CCCCN)C(=O)N[C@@H](Cc2ccc(O)cc2)C(=O)N[C@H](C(=O)N[C@@H](Cc2ccccc2)C(N)=O)C(C)C)NC(=O)[C@H](Cc2c[nH]c4ccccc24)NC(=O)[C@H](CCCCN)NC(=O)[C@H](Cc2c[nH]cn2)NC(=O)[C@H]([C@@H](C)O)NC(=O)[C@H](CCCNC(=N)N)NC(=O)[C@H](CO)NC3=O)NC(=O)[C@H](CCCCN)NC(=O)[C@H](CC(=O)O)NC(=O)[C@H](CC(N)=O)NC(=O)[C@H](CC(=O)O)NC(=O)[C@@H]2CCCN2C1=O` [compound 157] (H-DCLGFMRKCIPDNDKCCRRNLVCSRTHKWCKYVF-NH2; disulfide 2-17, 9-23, 16-30), the IC50 (IonWorks Quattro, Use) was determined as 70 nM.

These data come from US9340590B2 (priority 2011, dated 2016).
